Here are results for 17 compounds from PubChem BioAssay (NCI).

Holding throughout (assay): NCI tumour cell line growth inhibition, 48 h
Assay [1] relates to NCI-H522 lung.
Assay [2] relates to SK-OV-3 ovarian.
For assay [3], the system named is LOX IMVI melanoma.
In assay [4] the test system is HOP-62 NSCLC.
Assay [5] has as its system BT-549 breast.
Assay [6] deals with MDA-MB-435.
The test system of assay [7] is HOP-92 NSCLC.
The subject of assay [8] is NCI-H460 lung.
Assay [9] relates to OVCAR-4 ovarian.
In assay [10] the test system is A549 NSCLC.
Assay [11] has as its system MCF7 breast.
The test system of assay [12] is SN12C renal.
Assay [13] has as its system OVCAR-3 ovarian.
Assay [14] has as its system ACHN renal.
In assay [15] the test system is PC-3 prostate.
Assay [16] concerns DU-145 prostate.
Assay [17] deals with HL-60(TB) leukemia.
Assay [18] deals with SF-268 CNS.

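The compound was tested at five concentrations on cells cultured in 96-well plates, with a 48-hour exposure period. TGI: total growth inhibition.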

Consider `CC(C)(C)OC(=O)NCCNCCNc1ccccc1`, for which the TGI in assay [1], in assay [2], in [3], in assay [4], in assay [5] and in [6] was > 100 µM throughout. Also, the TGI in assay [7], in assay [8], in assay [9], in [10], in assay [11] and in assay [12] was > 100 µM throughout. Besides, the TGI in assay [13], in assay [14], in assay [15] and in [16] was > 100 µM in each case.
Turning to `COc1nc2c(c(=O)n1C)N=C(c1ccccc1)[C@H](C(CC(=O)c1ccccc1)c1ccccc1)C(c1ccccc1)N2` (stereo not given in full), the TGI in assay [1], in [2], in [3], in assay [4], in assay [5] and in [6] was > 100 µM throughout. The TGI in assay [7], in assay [9], in assay [10], in assay [11], in assay [12] and in assay [13] was > 100 µM in each case. The TGI in assay [14], in assay [15], in assay [16] and in [17] was > 100 µM throughout.
For `O=S(=O)(SC1=NCCN1)c1cccc2ccccc12`, the TGI in [1] was 36.2 µM; in assay [2] it was 45.7 µM; in assay [3] it was > 100 µM; in assay [4] it was > 100 µM; in assay [5], 76 µM; in assay [6], > 100 µM. Also, the TGI is > 100 µM in [7]; 84.3 µM in assay [8]; > 100 µM in assay [9]; 67.8 µM in [10]; > 100 µM in assay [11]; 48.1 µM in assay [12]. Also, the TGI is > 100 µM in [13]; 70.5 µM in assay [14]; > 100 µM in assay [15]; > 100 µM in assay [16]; > 10 µM in assay [17].
As to `O=c1[nH]c(=O)n(C2CC(O)C(CO)O2)c2nc3ccc4cc5ccccc5cc4c3nc12` (stereo not given), the TGI in [1], in [2], in assay [3], in [4], in assay [5] and in [6] was > 100 µM each time. The TGI in assay [7], in assay [18], in [9], in assay [10], in assay [11] and in assay [12] was > 100 µM throughout. In addition, the TGI in assay [13], in assay [14], in assay [15] and in assay [16] was > 100 µM in each case.
Regarding `COC(=O)C1Cc2ccc3c(c2C1=O)CCCC3` (stereo not given), the TGI in [1], in assay [2], in assay [3], in [4], in assay [5] and in assay [6] was > 100 µM each time. Besides, the TGI in assay [8], in assay [18], in assay [9], in assay [10], in assay [11] and in [12] was > 100 µM each time. The TGI in [13], in [14], in [15], in [16] and in [17] was > 100 µM each time.
`CCNC12CCC(C1)C(C)(C)C2=O` (stereo not given): the TGI in assay [2], in assay [3], in assay [4], in assay [5], in assay [6] and in assay [7] was > 100 µM each time. Further, the TGI in [8], in assay [9], in [10], in [11], in assay [12] and in [13] was > 100 µM each time. Besides, the TGI in assay [14], in assay [15], in [16] and in [17] was > 100 µM throughout.
Regarding `CC1(c2ccc(Cl)s2)CC(c2ccc(Cl)s2)=C(C#N)C(=C(C#N)C#N)N1` (stereo not given), the TGI in assay [2] came to 30.5 µM; in [3], 44.3 µM; in assay [4] it was 36 µM; in assay [5], 45.7 µM; in assay [6] it was 35.1 µM; in [7] it was 38.8 µM. Also, the TGI turned out to be 82.6 µM in assay [8]; 48.9 µM in [18]; 33.2 µM in assay [9]; 48.8 µM in [10]; 39.9 µM in assay [11]; 45.7 µM in assay [12]. Also, the TGI was 28.4 µM in assay [13]; 31.4 µM in assay [14]; 33.5 µM in assay [15]; 30.6 µM in [16]; 40.1 µM in [17].
With `ON[C@H]1C[C@@H](n2cnc3c(NC4CC4)ncnc32)[C@H](O)[C@@H]1O`, the TGI in assay [1], in [2], in [3], in assay [4], in assay [5] and in [6] was > 100 µM throughout. Also, the TGI in assay [7], in [8], in [18], in assay [9], in [10] and in assay [11] was > 100 µM each time. For the same compound, the TGI in assay [12], in assay [13], in [14], in assay [15] and in assay [16] was > 100 µM each time.
Turning to `COc1cc2c(cc1O)C1(Cc3ccc4c(c3C1=O)OCO4)N(C)CC2` (stereo not given), the TGI in [1], in assay [2], in [4], in assay [5], in assay [6] and in assay [7] was > 100 µM each time. Moreover, the TGI in assay [8], in assay [18], in assay [9], in assay [10], in assay [11] and in [12] was > 100 µM throughout. Besides, the TGI in assay [13], in assay [14], in assay [15], in assay [16] and in assay [17] was > 100 µM each time.
In the case of `O=C(NNC(=S)NCc1ccccc1)c1csc(NC(=S)NC2CCCCC2)n1`, the TGI in assay [1] is > 100 µM; in [2] it was > 100 µM; in assay [3] it was > 100 µM; in assay [4], > 100 µM; in assay [5], > 100 µM; in assay [6], 82.9 µM. In addition, the TGI in assay [18] is > 100 µM; in [10] it was > 100 µM; in assay [11], > 100 µM; in [12] it was 95.7 µM; in [13] it was > 100 µM; in assay [14], > 100 µM. Also, the TGI in assay [15], in assay [16] and in assay [17] was > 100 µM each time.
For the compound `CCN(CC)Cc1ccc(C(=S)Nc2ccc(C)cc2)s1`, the TGI in assay [1] turned out to be 28.9 µM; in [2] it was 31.1 µM; in [3] it was 30.2 µM; in assay [4], 34.5 µM; in assay [5], 40.2 µM; in assay [6], 26.5 µM. Further, the TGI in assay [8] came out at 30.8 µM; in [18], 4.42 µM; in [9] it was 71 µM; in [10], 36.1 µM; in assay [11] it was 25.1 µM; in [13] it was 70.9 µM. In addition, the TGI in assay [14] was determined as 39 µM; in assay [15], 31.3 µM; in assay [16] it was 56.7 µM; in assay [17], 27 µM.
As for `C=C1C(=O)OC2C3C(=C)[C@@H](OC(C)=O)CC3C(C)=CC(OC(=O)C(C)(OC(C)=O)C(C)OC(C)=O)[C@@H]12` (stereo not given in full), the TGI in [1] is 11.4 µM; in assay [2] it was > 100 µM; in assay [3], 27.3 µM; in assay [4] it was > 100 µM; in [5] it was 33 µM; in [6], 31.2 µM. Besides, the TGI in [8] amounted to 60.4 µM; in assay [18], 51.1 µM; in [9], 32.2 µM; in assay [10], 70.4 µM; in assay [11], 24.1 µM; in assay [12] it was 29.5 µM. The TGI in assay [13] came out at 26.7 µM; in assay [14], 27 µM; in [15], 32.4 µM; in [16], 30.5 µM; in assay [17] it was 6.54 µM.
With `COc1cc2c(cc1OC)CC1c3cc(OC)c(OC)cc3CCN1CC2` (stereo not given), the TGI in assay [1], in [2], in assay [4], in assay [5], in [6] and in [7] was > 100 µM in each case. Besides, the TGI in [8], in assay [18], in [9], in assay [10], in [11] and in [12] was > 100 µM in each case. For the same compound, the TGI in [13], in assay [14], in assay [15], in assay [16] and in [17] was > 100 µM throughout.
For `COc1ccc(N=NC(=Nc2ccc(Cl)cc2)c2ccc(N(CCC#N)CCC#N)cc2)cc1`, the TGI in [1] was 45.3 µM; in assay [2] it was > 100 µM; in assay [4] it was > 100 µM; in [5] it was 87.3 µM; in assay [6], > 100 µM; in [7], 93 µM. Further, the TGI in assay [8], in [18], in assay [9], in assay [10], in assay [11] and in assay [12] was > 100 µM throughout. The TGI in [13], in assay [14], in [15] and in [16] was > 100 µM throughout.
Take `COc1ccc(C2=C(N)c3ncccc3C2=O)cc1`: the TGI in assay [2] is > 100 µM; in [3], > 100 µM; in assay [4], > 100 µM; in assay [5], > 100 µM; in [6], > 100 µM; in assay [7] it was > 10 µM. Moreover, the TGI in assay [8], in assay [18], in [9], in [11], in assay [12] and in [13] was > 100 µM each time. For the same compound, the TGI in assay [14] was > 10 µM; in assay [15], > 100 µM; in assay [16], > 100 µM; in [17] it was > 100 µM.
Turning to `CCCCCCCCCCCCCCCCCCNc1nc(=O)n(C2CC(O)C(COP(=O)(O)OCC3OC(n4ccc(N)nc4=O)C(O)C3O)O2)cc1F` (stereo not given), the TGI in assay [1] is 65.3 µM; in assay [2] it was > 100 µM; in assay [3] it was 22.3 µM; in [4], > 100 µM; in [5], > 100 µM; in assay [6], > 100 µM. Besides, the TGI in [7], in assay [8], in assay [18], in assay [9], in assay [10] and in assay [11] was > 100 µM each time. The TGI in [12], in [13], in assay [14], in [15] and in [16] was > 100 µM in each case.
With `O=C1NC(N2CCCCC2)=N/C1=C\c1ccc(Cl)cc1`, the TGI in assay [1], in assay [2], in [3], in assay [4], in [5] and in [6] was > 100 µM in each case. Also, the TGI in assay [7] was 85.5 µM; in assay [18] it was > 100 µM; in [9], > 100 µM; in [10], > 100 µM; in assay [11], > 100 µM; in [12] it was > 100 µM. The TGI in assay [13], in assay [14], in [15], in assay [16] and in [17] was > 100 µM in each case.
